Read-outs that look alike come from different tables or passages of the source.
Assays:
GLP-1R = GLP-1R (Homo sapiens, UniProt P43220); experiment: GLP-1R activation: cAMP increase in CHO cells stably expressing GLP-1R; format: cell-based
[1] = Microsomal stability, human liver microsomes (predicted hepatic clearance); conditions: predicted from in vitro microsomal stability data
[2] = cAMP increase, CHO cells stably expressing GLP-1R, 10 point dose response, 30 minutes incubation, read-out: EC50

Chain of GLP-1R (P43220 24-463): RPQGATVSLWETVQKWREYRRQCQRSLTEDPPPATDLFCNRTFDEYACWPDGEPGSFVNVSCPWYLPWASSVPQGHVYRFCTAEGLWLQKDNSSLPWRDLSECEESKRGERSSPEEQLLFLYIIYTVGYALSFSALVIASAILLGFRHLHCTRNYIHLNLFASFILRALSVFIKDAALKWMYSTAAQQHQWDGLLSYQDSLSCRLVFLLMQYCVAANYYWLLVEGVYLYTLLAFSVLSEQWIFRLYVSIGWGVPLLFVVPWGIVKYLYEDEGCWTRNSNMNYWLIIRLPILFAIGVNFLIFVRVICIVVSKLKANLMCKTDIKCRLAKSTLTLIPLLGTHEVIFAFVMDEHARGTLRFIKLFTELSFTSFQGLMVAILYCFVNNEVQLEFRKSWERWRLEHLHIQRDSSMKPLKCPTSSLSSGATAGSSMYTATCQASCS

Compound	EC50 (GLP-1R; EC50 (nM))	Predicted Hepatic Clearance (Pred. Cl.) [1]	EC50 (GLP-1R; [2])	EC50 (GLP-1R; read-out: EC50)
COCCn1c(Cc2ccc(-c3cccc(OCc4ccc(C#N)cc4F)n3)cc2NC(=O)OC)nc2ccc(C(=O)O)cc21 [Example 383, 2-(4-(6-((4-cyano-2-fluorobenzyl)oxy)pyridin-2-yl)-2-((methoxycarbonyl)amino)benzyl)-1-(2-methoxyethyl)-1H-benzo[d]imidazole-6-carboxylic acid]	123 nM	8.67 mL/min/kg	–	–
CC1(Cn2c(Cc3ccc(-c4cccc(OCc5ccc(C#N)cc5F)n4)cc3F)nc3ccc(C(=O)O)cc32)CCC1 [Example 384, 2-(4-(6-((4-cyano-2-fluorobenzyl)oxy)pyridin-2-yl)-2-fluorobenzyl)-1-((1-methylcyclobutyl)methyl)-1H-benzo[d]imidazole-6-carboxylic acid]	–	<1.83 mL/min/kg	1.45 nM	–
N#Cc1ccc(COc2cccc(-c3ccc(Cc4nc5ccc(C(=O)O)cc5n4CC4(C(F)F)CCC4)c(F)c3)n2)c(F)c1 [Example 385, 2-(4-(6-((4-cyano-2-fluorobenzyl)oxy)pyridin-2-yl)-2-fluorobenzyl)-1-((1-(difluoromethyl)cyclobutyl)methyl)-1H-benzo[d]imidazole-6-carboxylic acid]	–	5.33 mL/min/kg	1.34 nM	–
COCCn1c(Cc2ccc(-c3cccc(OCc4ccc(C#N)cc4F)n3)cc2F)nc2ccc(CC(=O)O)cc21 [Example 386, 2-(2-(4-(6-((4-cyano-2-fluorobenzyl)oxy)pyridin-2-yl)-2-fluorobenzyl)-1-(2-methoxyethyl)-1H-benzo[d]imidazol-6-yl)acetic acid]	157 nM	2 mL/min/kg	–	–
COCCn1c(Cc2ccc(-c3cccc(OCc4ccc(C#N)cc4F)n3)cc2S(C)(=O)=O)nc2ccc(C(=O)O)cc21 [Example 387, 2-(4-(6-((4-cyano-2-fluorobenzyl)oxy)pyridin-2-yl)-2-(methylsulfonyl)benzyl)-1-(2-methoxyethyl)-1H-benzo[d]imidazole-6-carboxylic acid]	–	8.3 mL/min/kg	504 nM	–
N#CCC1(Cn2c(Cc3ccc(-c4cccc(OCc5ccc(C#N)cc5F)n4)cc3C#N)nc3ccc(C(=O)O)cc32)CC1 [Example 388, 2-(2-cyano-4-(6-((4-cyano-2-fluorobenzyl)oxy)pyridin-2-yl)benzyl)-1-((1-(cyanomethyl)cyclopropyl)methyl)-1H-benzo[d]imidazole-6-carboxylic acid]	–	5.17 mL/min/kg	0.24 nM	–
N#Cc1ccc(COc2cccc(-c3ccc(Cc4nc5ccc(C(=O)O)cc5n4CC4CC4)c(F)c3)n2)c(F)c1 [Example 389, 2-(4-(6-((4-cyano-2-fluorobenzyl)oxy)pyridin-2-yl)-2-fluorobenzyl)-1-(cyclopropylmethyl)-1H-benzo[d]imidazole-6-carboxylic acid]	–	<1.83 mL/min/kg	26.6 nM	–
COCCCn1c(Cc2ccc(-c3cccc(OCc4ccc(C#N)cc4F)n3)cc2F)nc2ccc(C(=O)O)cc21 [Example 390, 2-(4-(6-((4-cyano-2-fluorobenzyl)oxy)pyridin-2-yl)-2-fluorobenzyl)-1-(3-methoxypropyl)-1H-benzo[d]imidazole-6-carboxylic acid]	–	7.5 mL/min/kg	26.4 nM	–
COCCn1c(Cc2ccc(-c3cccc(OCc4ccc(C#N)cc4F)n3)c(F)c2C#N)nc2ccc(C(=O)O)cc21 [Example 391, 2-(2-cyano-4-(6-((4-cyano-2-fluorobenzyl)oxy)pyridin-2-yl)-3-fluorobenzyl)-1-(2-methoxyethyl)-1H-benzo[d]imidazole-6-carboxylic acid]	–	5.42 mL/min/kg	≥ 1000 nM	–
N#Cc1ccc(COc2cccc(-c3ccc(Cc4nc5ccc(C(=O)O)cc5n4CCCO)c(F)c3)n2)c(F)c1 [Example 392, 2-(4-(6-((4-cyano-2-fluorobenzyl)oxy)pyridin-2-yl)-2-fluorobenzyl)-1-(3-hydroxypropyl)-1H-benzo[d]imidazole-6-carboxylic acid]	–	3.17 mL/min/kg	14.5 nM	–
N#Cc1ccc(COc2cccc(-c3ccc(Cc4nc5ccc(C(=O)O)cc5n4CC4(CF)CCC4)c(F)c3)n2)c(F)c1 [Example 393, 2-(4-(6-((4-cyano-2-fluorobenzyl)oxy)pyridin-2-yl)-2-fluorobenzyl)-1-((1-(fluoromethyl)cyclobutyl)methyl)-1H-benzo[d]imidazole-6-carboxylic]	–	5 mL/min/kg	33.5 nM	–
N#Cc1ccc(COc2cccc(-c3ccc(Cc4nc5ccc(C(=O)O)cc5n4CCC4(CF)CC4)c(F)c3)n2)c(F)c1 [Example 394, 2-(4-(6-((4-cyano-2-fluorobenzyl)oxy)pyridin-2-yl)-2-fluorobenzyl)-1-(2-(1-(fluoromethyl)cyclopropyl)ethyl)-1H-benzo[d]imidazole-6-carboxylic acid]	–	4.17 mL/min/kg	6.06 nM	–
N#Cc1ccc(COc2cccc(-c3ccc(Cc4nc5ccc(C(=O)O)cc5n4C[C@@H]4CCN4C4COC4)c(F)c3)n2)c(F)c1 [Example 395, (S)-2-(4-(6-((4-cyano-2-fluorobenzyl)oxy)pyridin-2-yl)-2-fluorobenzyl)-1-((1-(oxetan-3-yl)azetidin-2-yl)methyl)-1H-benzo[d]imidazole-6-carboxylic acid]	–	<1.83 mL/min/kg	–	42.3 nM
N#Cc1ccc(COc2cccc(-c3ccc(Cc4nc5ccc(C(=O)O)cc5n4C[C@@H]4CCN4C4COC4)c(F)c3)n2)c(F)c1 [Example 396, (S)-2-(4-(6-((4-cyano-2-fluorobenzyl)oxy)pyridin-2-yl)-2-fluorobenzyl)-1-((1-(oxetan-3-yl)azetidin-2-yl)methyl)-1H-benzo[d]imidazole-6-carboxylic acid]	–	8.67 mL/min/kg	–	45.5 nM
COc1cc(C#N)ccc1COc1nccc(-c2cc(F)c(Cc3nc4c(F)cc(C(=O)O)cc4n3C[C@@H]3CCO3)cc2F)n1 [Example 398, (S)-2-(4-(2-((4-cyano-2-methoxybenzyl)oxy)pyrimidin-4-yl)-2,5-difluorobenzyl)-4-fluoro-1-(oxetan-2-ylmethyl)-1H-benzo[d]imidazole-6-carboxylic acid]	–	10.2 mL/min/kg	0.1 nM	–
N#CCC1(Cn2c(Cc3c(F)cc(-c4ccnc(OCc5ccc(C#N)cc5F)n4)cc3F)nc3ccc(C(=O)O)cc32)CC1 [Example 399, 2-(4-(2-((4-cyano-2-fluorobenzyl)oxy)pyrimidin-4-yl)-2,6-difluorobenzyl)-1-((1-(cyanomethyl)cyclopropyl)methyl)-1H-benzo[d]imidazole-6-carboxylic acid]	–	3.3 mL/min/kg	2.81 nM	–
N#CCC1(Cn2c(Cc3cc(F)c(-c4ccnc(OCc5ccc(C#N)cc5F)n4)cc3F)nc3ccc(C(=O)O)nc32)CC1 [Example 400, 2-(4-(2-((4-cyano-2-fluorobenzyl)oxy)pyrimidin-4-yl)-2,5-difluorobenzyl)-3-((1-(cyanomethyl)cyclopropyl)methyl)-3H-imidazo[4,5-b]pyridine-5-carboxylic acid]	–	<1.83 mL/min/kg	0.47 nM	–
COCCn1c(Cc2c(F)cc(-c3cccc(OCc4ccc(C#N)cc4F)n3)c(F)c2F)nc2ccc(C(=O)O)cc21 [Example 401, 2-(4-(6-((4-cyano-2-fluorobenzyl)oxy)pyridin-2-yl)-2,3,6-trifluorobenzyl)-1-(2-methoxyethyl)-1H-benzo[d]imidazole-6-carboxylic acid]	1.34 nM	6.92 mL/min/kg	–	–
N#Cc1ccc(COc2cccc(-c3ccc(Cc4nc5ccc(C(=O)O)cc5n4Cc4cnco4)c(F)c3)n2)c(F)c1 [Example 402, 2-(4-(6-((4-cyano-2-fluorobenzyl)oxy)pyridin-2-yl)-2-fluorobenzyl)-1-(oxazol-5-ylmethyl)-1H-benzo[d]imidazole-6-carboxylic acid]	–	12 mL/min/kg	2.11 nM	–
N#Cc1ccc(COc2nccc(-c3ccc(Cc4nc5ccc(C(=O)O)cc5n4C[C@@H]4CCO4)cc3F)n2)c(F)c1 [Example 403, (S)-2-(4-(2-((4-cyano-2-fluorobenzyl)oxy)pyrimidin-4-yl)-3-fluorobenzyl)-1-(oxetan-2-ylmethyl)-1H-benzo[d]imidazole-6-carboxylic acid]	–	4.95 mL/min/kg	0.89 nM	–
CCn1cnnc1Cn1c(Cc2ccc(-c3cccc(OCc4ccc(C#N)cc4F)n3)cc2F)nc2ccc(C(=O)O)cc21 [Example 404, 2-(4-(6-((4-cyano-2-fluorobenzyl)oxy)pyridin-2-yl)-2-fluorobenzyl)-1-((4-ethyl-4H-1,2,4-triazol-3-yl)methyl)-1H-benzo[d]imidazole-6-carboxylic acid]	–	<1.83 mL/min/kg	1.71 nM	–
COCCn1c(Cc2c(F)cc(-c3ccnc(OCc4ccc(C#N)cc4F)n3)c(F)c2F)nc2ccc(C(=O)O)cc21 [Example 405, 2-(4-(2-((4-cyano-2-fluorobenzyl)oxy)pyrimidin-4-yl)-2,3,6-trifluorobenzyl)-1-(2-methoxyethyl)-1H-benzo[d]imidazole-6-carboxylic acid]	–	5.5 mL/min/kg	1.71 nM	–
N#Cc1ccc(COc2nccc(-c3ccc(Cc4nc5c(F)cc(C(=O)O)cc5n4C[C@@H]4CCO4)c(F)c3)n2)c(F)c1 [Example 406, (S)-2-(4-(2-((4-cyano-2-fluorobenzyl)oxy)pyrimidin-4-yl)-2-fluorobenzyl)-4-fluoro-1-(oxetan-2-ylmethyl)-1H-benzo[d]imidazole-6-carboxylic acid]	–	3.83 mL/min/kg	0.18 nM	–
N#Cc1ccc(COc2cccc(-c3ccc(Cc4nc5ccc(C(=O)O)cc5n4Cc4cocn4)c(F)c3)n2)c(F)c1 [Example 407, 2-(4-(6-((4-cyano-2-fluorobenzyl)oxy)pyridin-2-yl)-2-fluorobenzyl)-1-(oxazol-4-ylmethyl)-1H-benzo[d]imidazole-6-carboxylic acid]	–	3.75 mL/min/kg	4.69 nM	–
